Reference: patent US20200016174A1, “PHARMACEUTICAL COMPOSITION” (MEXICHEM FLUOR S.A. DE C.V., priority 2016, published 2020)
Structures can show the parent of a compound that is named as a salt.

Columns and labels:
Assay type in all cases: physicochemical
[1] = In vitro aerosolization performance (Next Generation Impactor) of beclomethasone dipropionate / formoterol fumarate dihydrate combination MDI formulations; conditions: after 1 month at ambient conditions, NGI 30 L/min
[2] = In vitro aerosolization performance (Next Generation Impactor) of beclomethasone dipropionate MDI formulations in HFA-152a with varying ethanol and glycerol; conditions: immediately after preparation
Method: A number of experiments were conducted to investigate the effects of glycerol on the in vitro aerosolization performance of drug formulations of beclomethasone dipropionate delivered from a metered dose inhaler (MDI) using HFA-152a as the propellant.
Pharmaceutical formulations of beclomethasone dipropionate were prepared in HFA-152a (Mexichem, UK). […] Anhydrous ethanol in an amount of 5, 10 or 15 weight % based on the total weight of the formulation and glycerol in an amount of 0, 1 or 2 weight %, again based on the total weight of the formulation, were then added to the canisters. […] The nominal dose of beclomethasone dipropionate was […].

[3] = Chemical stability (total impurities) of beclomethasone dipropionate formulations with varying ethanol and glycerol in uncoated aluminium cans; conditions: for % Total Imps T = 0 / % Total Imps T = 1 M @ 40° C./75% RH / % Total Imps T = 3 M @ 40° C./75% RH: uncoated aluminium cans
Method: A number of experiments were conducted to investigate the stability of beclomethasone dipropionate in HFA-134a and HFA-152a.
Anhydrous ethanol in an amount of 5, 10 or 15 weight % based on the total weight of the formulation and glycerol in an amount of 0, 1 or 2 weight %, again based on the total weight of the formulation, were then added to the canisters. […] The nominal dose of beclomethasone dipropionate was […].

[4] = combination formulation in HFA-134a and 10 weight % ethanol
[5] = combination formulation in HFA-152a and 10 weight % ethanol
[6] = 5 wt. % ethanol, 0 wt. % glycerol
[7] = 5 wt. % ethanol, 1 wt. % glycerol
[8] = 5 wt. % ethanol, 2 wt. % glycerol
[9] = 10 wt. % ethanol, 0 wt. % glycerol
[10] = 10 wt. % ethanol, 1 wt. % glycerol
[11] = 10 wt. % ethanol, 2 wt. % glycerol
[12] = 15 wt. % ethanol, 0 wt. % glycerol
[13] = 15 wt. % ethanol, 1 wt. % glycerol
[14] = 15 wt. % ethanol, 2 wt. % glycerol
[15] = HFA-134a, 5 wt. % ethanol, 0 wt. % glycerol
[16] = HFA-134a, 5 wt. % ethanol, 1 wt. % glycerol
[17] = HFA-134a, 5 wt. % ethanol, 2 wt. % glycerol
[18] = HFA-134a, 10 wt. % ethanol, 0 wt. % glycerol
[19] = HFA-134a, 10 wt. % ethanol, 1 wt. % glycerol
[20] = HFA-134a, 10 wt. % ethanol, 2 wt. % glycerol
[21] = HFA-134a, 15 wt. % ethanol, 0 wt. % glycerol
[22] = HFA-134a, 15 wt. % ethanol, 1 wt. % glycerol
[23] = HFA-134a, 15 wt. % ethanol, 2 wt. % glycerol
[24] = HFA-152a, 5 wt. % ethanol, 0 wt. % glycerol
[25] = HFA-152a, 5 wt. % ethanol, 1 wt. % glycerol
[26] = HFA-152a, 5 wt. % ethanol, 2 wt. % glycerol
[27] = HFA-152a, 10 wt. % ethanol, 0 wt. % glycerol
[28] = HFA-152a, 10 wt. % ethanol, 1 wt. % glycerol
[29] = HFA-152a, 10 wt. % ethanol, 2 wt. % glycerol
[30] = HFA-152a, 15 wt. % ethanol, 0 wt. % glycerol
[31] = HFA-152a, 15 wt. % ethanol, 1 wt. % glycerol
[32] = HFA-152a, 15 wt. % ethanol, 2 wt. % glycerol

With COc1ccc(CC(C)NCC(O)c2ccc(O)c(NC=O)c2)cc1 (stereo not shown) [formoterol fumarate dihydrate] as the compound, how does the FPFED % [1, 4] read?
Its FPFED % is 66.35%.

What about the “Fine Particle Dose” value [1, 4] of the same compound?
Its value is 3.67 µg.

And the “MMAD ± GSD” value [1, 4]?
The value was 1.36 ± 2.00 μm.

What about the FPFED % [1, 5] of the same compound?
The FPFED % was 60.01%.

And the “Fine Particle Dose” value [1, 5]?
The value was 3.57 µg.

And the “MMAD ± GSD” value [1, 5]?
The value was 1.51 ± 2.08 μm.

Which results are given for CCC(=O)OCC(=O)[C@@]1(OC(=O)CC)[C@@H](C)C[C@H]2[C@@H]3CCC4=CC(=O)C=C[C@]4(C)[C@@]3(Cl)[C@@H](O)C[C@@]21C [beclomethasone dipropionate]?
FPFED % [1, 4]: 63.16%; Fine Particle Dose [1, 4]: 98.92 µg; MMAD ± GSD [1, 4]: 1.41 ± 1.95 μm; FPFED % [1, 5]: 55.67%; Fine Particle Dose [1, 5]: 105.11 µg; MMAD ± GSD [1, 5]: 1.57 ± 1.98 μm; FPFED [2, 6]: 65.17%; FPM [2, 6]: 114.36 µg; MMAD (μm) ± GSD [2, 6]: 1.27 ± 1.80 μm; FPFED [2, 7]: 67.97%; FPM [2, 7]: 123.94 µg; MMAD (μm) ± GSD [2, 7]: 1.55 ± 1.93 μm; FPFED [2, 8]: 65.69%; FPM [2, 8]: 120.25 µg; MMAD (μm) ± GSD [2, 8]: 1.62 ± 2.06 μm; FPFED [2, 9]: 59.47%; FPM [2, 9]: 117.15 µg; MMAD (μm) ± GSD [2, 9]: 1.33 ± 1.84 μm; FPFED [2, 10]: 58.64%; FPM [2, 10]: 116.83 µg; MMAD (μm) ± GSD [2, 10]: 2.09 ± 1.92 μm; FPFED [2, 11]: 55.76%; FPM [2, 11]: 104.23 µg; MMAD (μm) ± GSD [2, 11]: 2.19 ± 2.12 μm; FPFED [2, 12]: 50.99%; FPM [2, 12]: 102.86 µg; MMAD (μm) ± GSD [2, 12]: 1.42 ± 2.02 μm; FPFED [2, 13]: 48.85%; FPM [2, 13]: 96.11 µg; MMAD (μm) ± GSD [2, 13]: 2.29 ± 2.06 μm; FPFED [2, 14]: 43.57%; FPM [2, 14]: 83.04 µg; MMAD (μm) ± GSD [2, 14]: 2.59 ± 2.12 μm; % Total Imps T = 0 [3, 15]: 0.89%; % Total Imps T = 1 M @ 40° C./75% RH [3, 15]: 1.58%; % Total Imps T = 3 M @ 40° C./75% RH [3, 15]: 2.08%; % Total Imps T = 0 [3, 16]: 0.34%; % Total Imps T = 1 M @ 40° C./75% RH [3, 16]: 1.91%; % Total Imps T = 3 M @ 40° C./75% RH [3, 16]: 2.14%; % Total Imps T = 0 [3, 17]: 0.55%; % Total Imps T = 1 M @ 40° C./75% RH [3, 17]: 0.78%; % Total Imps T = 3 M @ 40° C./75% RH [3, 17]: 1.18%; % Total Imps T = 0 [3, 18]: 1.16%; % Total Imps T = 1 M @ 40° C./75% RH [3, 18]: 1.82%; % Total Imps T = 3 M @ 40° C./75% RH [3, 18]: 2.21%; % Total Imps T = 0 [3, 19]: 1.34%; % Total Imps T = 1 M @ 40° C./75% RH [3, 19]: 2.25%; % Total Imps T = 3 M @ 40° C./75% RH [3, 19]: 2.49%; % Total Imps T = 0 [3, 20]: 1.49%; % Total Imps T = 1 M @ 40° C./75% RH [3, 20]: 1.97%; % Total Imps T = 3 M @ 40° C./75% RH [3, 20]: 2.35%; % Total Imps T = 0 [3, 21]: 1.08%; % Total Imps T = 1 M @ 40° C./75% RH [3, 21]: 2.35%; % Total Imps T = 3 M @ 40° C./75% RH [3, 21]: 4.21%; % Total Imps T = 0 [3, 22]: 2.88%; % Total Imps T = 1 M @ 40° C./75% RH [3, 22]: 3.15%; % Total Imps T = 3 M @ 40° C./75% RH [3, 22]: 3.99%; % Total Imps T = 0 [3, 23]: 2.95%; % Total Imps T = 1 M @ 40° C./75% RH [3, 23]: 4.22%; % Total Imps T = 3 M @ 40° C./75% RH [3, 23]: 4.89%; % Total Imps T = 0 [3, 24]: 0.08%; % Total Imps T = 1 M @ 40° C./75% RH [3, 24]: 0.16%; % Total Imps T = 3 M @ 40° C./75% RH [3, 24]: 0.35%; % Total Imps T = 0 [3, 25]: 0.11%; % Total Imps T = 1 M @ 40° C./75% RH [3, 25]: 0.15%; % Total Imps T = 3 M @ 40° C./75% RH [3, 25]: 0.28%; % Total Imps T = 0 [3, 26]: 0.09%; % Total Imps T = 1 M @ 40° C./75% RH [3, 26]: 0.21%; % Total Imps T = 3 M @ 40° C./75% RH [3, 26]: 0.34%; % Total Imps T = 0 [3, 27]: 0.21%; % Total Imps T = 1 M @ 40° C./75% RH [3, 27]: 0.35%; % Total Imps T = 3 M @ 40° C./75% RH [3, 27]: 0.42%; % Total Imps T = 0 [3, 28]: 0.34%; % Total Imps T = 1 M @ 40° C./75% RH [3, 28]: 0.36%; % Total Imps T = 3 M @ 40° C./75% RH [3, 28]: 0.55%; % Total Imps T = 0 [3, 29]: 0.23%; % Total Imps T = 1 M @ 40° C./75% RH [3, 29]: 0.29%; % Total Imps T = 3 M @ 40° C./75% RH [3, 29]: 0.31%; % Total Imps T = 0 [3, 30]: 0.56%; % Total Imps T = 1 M @ 40° C./75% RH [3, 30]: 0.89%; % Total Imps T = 3 M @ 40° C./75% RH [3, 30]: 1.11%; % Total Imps T = 0 [3, 31]: 0.66%; % Total Imps T = 1 M @ 40° C./75% RH [3, 31]: 0.79%; % Total Imps T = 3 M @ 40° C./75% RH [3, 31]: 1.56%; % Total Imps T = 0 [3, 32]: 0.72%; % Total Imps T = 1 M @ 40° C./75% RH [3, 32]: 0.89%; % Total Imps T = 3 M @ 40° C./75% RH [3, 32]: 1.48%; stability with HFA-152a as propellant rather than HFA-134a ([3]; all investigated levels of ethanol and glycerol, comparison of Tables 10 and 11): significantly higher
